Values quoted from earlier work, collected in US20220218792A1, “COMPOSITIONS TO PROMOTE THE HEALING OF SKIN ULCERS AND WOUNDS” (priority 2014, published 2022).

Experiments:
[1] = not given; remark: listed apart in the source
[2] = for gastric tolerability: oral
[3] = test system: chronic wounds and ulcers; settings: topically applied; deep partial-thickness burns, chronic leg ulcers and leprosy ulcers
[4] = test system: wounds infected with Escherichia coli; settings: topically applied, rats
[5] = test system: strains of organisms from the susceptible genera
[6] = test system: Peptostreptococcus (including Peptoniphilus, Finegoldia and Anaerococcus) and Fusobacterium; settings: anaerobic genera
[7] = test system: Staphylococcus, Streptococcus, Neisseria, Escherichia, Proteus (indole-negative), Serratia, Salmonella, Shigella, Pseudomonas, Haemophilus, Vibrio; settings: aerobic genera
[8] = aqueous media at physiological pH
[9] = test system: indole-positive Proteus spp., Klebsiella and Enterobacter spp.
[10] = test system: polymorphonuclear leukocytes

In the case of C[C@@H]1O[C@@H]1P(=O)(O)O.NC(CO)(CO)CO [Fosfomycin trometamol], the solubility in water is given as “highly soluble”, the “pH of 5% solution” value [1] is given as 3.5-5.5 and the gastric tolerability [2] is given as “well tolerated”.
For C[C@@H]1O[C@@H]1P(=O)(O)O [Fosfomycin disodium], the solubility in water is given as “highly soluble”, the “pH of 5% solution” value [1] is given as 9.0-10.5 and the gastric tolerability [2] is given as “irritant to the stomach”.
For “GM-CSF: monomeric glycoprotein of 127 amino-acid residues, colony-stimulating factor (SEQ ID NO: 2)”, the “healing of wounds and ulcers” value [3] is listed as “beneficial”, the bacterial counts [4] is listed as “reduced bacterial counts” and the wound closure [4] is listed as “accelerated wound closure”.
In the case of C[C@@H]1O[C@@H]1P(=O)(O)O [fosfomycin, [(2R,3S)-3-methyloxiran-2-yl]phosphonic acid], the “strains showing synergistic effect” value ([5]; early studies, various antibiotic combinations) is given as 70-100 % of tested strains, the synergy rates ([5]; subsequent more extensive studies) is given as 36-74% and the bactericidal activity [6] is given as “active”. The bactericidal activity [7] was “active”, the “stability in aqueous media” value [8] was “unstable” and the bactericidal activity [9] was “less active”. The “concentration in polymorphonuclear leukocytes relative to extracellular fluid” value [10] was “twice”, the “toxicity to mammalian cells and organs” value ([2]; intravenous doses of up to 0.5 g/kg/day in human patients) was “remarkably non-toxic” and the eosinophilia ([2]; patients) was 0.2%. The “transient rashes (allergy)” value ([2]; patients) was 0.3 % of cases and the “transiently raised liver enzymes” value ([2]; patients) was 0.3 % of cases.
For C[C@@H]1O[C@@H]1P(=O)(O)O [Fosfomycin calcium monohydrate], the solubility in water is listed as “sparingly soluble”, the “pH of 0.4% solution” value ([1]; 0.4% solution) is listed as 8.1-9.6 and the gastric tolerability [2] is listed as “less irritating to the stomach”.
